{
  "source": "patent US5888536A",
  "about": "(Chinoin Ltd., priority 1994, dated 1999)",
  "origin": "cited, not measured here",
  "data": [
    {"smiles": "C#CCN(C)[C@H](C)Cc1ccccc1", "note": "[selegilin, (-)-[N-α-dimethyl-N-(2-propynylphenylethylamine)]]", "values": [
      {"measurement": "solubility in chloroform", "setting": "chloroform", "value": 1, "unit": "g/5 ml"},
      {"measurement": "solubility in methanol", "setting": "methanol", "value": 1, "unit": "g/3 ml"},
      {"measurement": "solubility in water", "setting": "water", "value": 1, "unit": "g/3 ml"}
    ]}
  ]
}
